Patent US20220016277A1, “MACROCYCLIC COMPLEXES OF RADIONUCLIDES AND THEIR USE IN RADIOTHERAPY OF CANCER” (Cornell University, priority 2018, published 2022)

What was measured:
[1] = Kinetic inertness of Lu^3+ complex of macropa: transchelation challenge; assay type: physicochemical; settings: Lu^3+ complex of macropa formed in situ; addition of 10 equiv of EDTA; pH 7.4
Experimental: (§1) Kinetic Inertness of La^3+ and Lu^3+ Complexes of Macropa: Transchelation Challenge. A stock solution of ethylenediaminetetraacetic acid (EDTA, 100 mM) was made in MOPS buffer (prepared as described above) by adjusting the pH of the initial suspension to 6.6 using aqueous NMe4OH. A stock solution of diethylenetriaminepentaacetic acid (DTPA, 125 mM) was prepared in H2O by adjusting the pH to 7.4 as described for EDTA. This solution was serially diluted with H2O to yield 12.5 mM and 1.25 mM solutions of DTPA.
(§2) The preformed La^3+ and Lu^3+ complexes of macropa were challenged with EDTA. […] […]. Solutions were repeatedly analyzed by UV spectroscopy over the course of 21 days for any spectral changes. The final pH of each solution was between 7.18 and 7.25.

[2] = Kinetic inertness of La^3+ complex of macropa: transchelation challenge; assay type: physicochemical; settings: La^3+ complex of macropa formed in situ; 1000 equiv of DTPA; whole 21-day observation
Experimental: as §1, §2
The complex formed in situ between La^3+ and macropa was more rigorously challenged with excess DTPA. A solution containing 500 μM of complex, prepared using the LaCl3 and macropa stock solutions described above, was left to equilibrate for 5 min. Subsequently, it was portioned into cuvettes and diluted with either 125 mM DTPA, 12.5 mM DTPA, 1.25 mM DTPA, or MOPS to yield solutions containing 1000-, 100-, 10-, or 0-fold excess DTPA and 100 μM concentration of macropa. These solutions were repeatedly analyzed by UV spectroscopy over the course of 21 days for any spectral changes. The final pH of each solution was between 7.11 and 7.42.

With O=C(O)c1cccc(CN2CCOCCOCCN(Cc3cccc(C(=O)O)n3)CCOCCOCC2)n1 [macropa, N,N′-bis[(6-carboxy-2-pyridil)methyl]-4,13-diaza-18-crown-6] the “time until Lu^3+ ion was transchelated” value [1] was at most 1 min and the “time La^3+ complex remained intact” value [2] was “up to 21 days”.
